# Measurements published in a flash point compilation (Sun et al. 2020).
row,flash point,SMILES
1,180.00 °C,CO[Si](OC)(OC)c1ccc(N)cc1 [p-AMINOPHENYLTRIMETHOXYSILANE]
2,116.00 °C,C[Si](C)(C)CNCc1ccccc1 [N-BENZYLAMINOMETHYLTRIMETHYLSILANE]
3,90.00 °C,CO[Si](C)(CCCNCCN)OC [N-(2-AMINOETHYL)-3-AMINOPROPYLMETHYLDIMETHOXYSILANE]

# Second part, the molecule before the results:
row,SMILES,flash point
1,C=CC[SiH](C)C [ALLYLDIMETHYLSILANE],-20.00 °C
2,C[Si](C)(C)CN [AMINOMETHYLTRIMETHYLSILANE],9.00 °C
3,C=CC(=O)O[Si](C)(C)C [ACRYLOXYTRIMETHYLSILANE],26.00 °C
4,CCO[Si](C)(C)CCCN [3-AMINOPROPYLDIMETHYLETHOXYSILANE],73.00 °C
5,CCO[Si](CCCCN)(OCC)OCC [4-AMINOBUTYLTRIETHOXYSILANE],109.00 °C
6,CCO[Si](CCCCCCS(=O)(=O)N=[N+]=[N-])(OCC)OCC [6-AZIDOSULFONYLHEXYLTRIETHOXYSILANE],114.00 °C
7,C=CC[Si](C)(C)N(C(C)C)C(C)C [ALLYLDIMETHYL(DIISOPROPYLAMINO)SILANE],62.00 °C
8,CC(=O)OC[Si](C)(C)C [ACETOXYMETHYLTRIMETHYLSILANE],20.00 °C
9,C[SiH](C)Cc1ccccc1 [BENZYLDIMETHYLSILANE],65.00 °C
10,CO[Si](CCCOC(C)=O)(OC)OC [3-ACETOXYPROPYLTRIMETHOXYSILANE],93.00 °C
11,CC(=O)OCC[Si](Cl)(Cl)Cl [ACETOXYETHYLTRICHLOROSILANE],82.00 °C
12,CC(=O)OCCC[Si](C)(Cl)Cl [3-ACETOXYPROPYLMETHYLDICHLOROSILANE],85.00 °C
13,C=CC[Si](O[Si](C)(C)C)(O[Si](C)(C)C)O[Si](C)(C)C [ALLYLTRIS(TRIMETHYLSILOXY)SILANE],67.00 °C

# Remark: another data set of the same source
row,flash point,SMILES
1,-19.00 °C,[CH3][Ge]([CH3])([CH3])[CH3] [TETRAMETHYLGERMANE]
2,5.00 °C,C[CH2][GeH]([CH2]C)[CH2]C [TRIETHYLGERMANE]
3,82.00 °C,CCC[CH2][Ge]([Cl])([Cl])[Cl] [n-BUTYLTRICHLOROGERMANE]
4,94.00 °C,CCC[CH2][Ge]([Cl])([CH2]CCC)[CH2]CCC [TRI-n-BUTYLCHLOROGERMANE]
5,40.00 °C,CC[O][Ge]([CH3])([O]CC)[O]CC [METHYLTRIETHOXYGERMANE]
6,66.00 °C,C[CH](C)[Ge]([Cl])([CH](C)C)[CH](C)C [TRIISOPROPYLCHLOROGERMANE]
7,-10.00 °C,C[N](C)[Ge]([CH3])([CH3])[CH3] [DIMETHYLAMINOTRIMETHYLGERMANE]
8,62.00 °C,CC[O][Ge]([O]CC)([O]CC)[O]CC [TETRAETHOXYGERMANE]
9,68.00 °C,CC(C)[O][Ge]([O]C(C)C)([O]C(C)C)[O]C(C)C [TETRAISOPROPOXYGERMANE]
10,78.00 °C,CCC[CH2][GeH]([CH2]CCC)[CH2]CCC [TRI-n-BUTYLGERMANE]
11,12.00 °C,[Cl][GeH]([Cl])[Cl] [TRICHLOROGERMANE]
12,70.00 °C,C=C[CH2][Ge]([CH2]C=C)([CH2]C=C)[CH2]C=C [TETRAALLYLGERMANE]
13,1.00 °C,[CH3][Ge]([CH3])([CH3])[Cl] [TRIMETHYLCHLOROGERMANE]
14,90.00 °C,CCC[CH2][Ge]([CH2]CCC)([CH2]CCC)[CH2]CCC [TETRA-n-BUTYLGERMANE]
15,38.00 °C,C[CH2][Ge]([Cl])([CH2]C)[CH2]C [TRIETHYLCHLOROGERMANE]

# Continued, molecule first:
row,SMILES,flash point
1,[CH3][Ge]([CH3])([CH3])[CH](Cl)Cl [DICHLOROMETHYLTRIMETHYLGERMANE],33.00 °C
2,C[CH2][Ge]([Cl])([Cl])[CH2]C [DIETHYLDICHLOROGERMANE],52.00 °C
3,C=C[CH2][Ge]([CH2]C)([CH2]C)[CH2]C [ALLYLTRIETHYLGERMANE],48.00 °C
4,C=C[CH2][Ge]([Cl])([Cl])[Cl] [ALLYLTRICHLOROGERMANE],55.00 °C

# Remark: another data set of the same source
row,flash point,SMILES
1,12 °C,C=C[Si](C)(C)O[Si](C)(C)C [Vinylpentamethyldisiloxane]
2,42 °C,C[Si](C)(C)OB(O[Si](C)(C)C)O[Si](C)(C)C [Tris(trimethylsiloxy)boron]
3,26 °C,CC[Si](CC)(CC)CC [Tetraethylsilane]
4,25 °C,CN(C(=O)C(F)(F)F)[Si](C)(C)C [N-Methyl-N-trimethylsilyltrifluoroacetamide]

# More lines, now with the values behind:
row,SMILES,flash point
1,CO[Si](CCCNCCN)(OC)OC [Aminoethylaminopropyltrimethoxysilane],96 °C
2,C[Si](C)(C)N=C=N[Si](C)(C)C [Bis(trimethylsilyl)carbodiimide],42 °C

# Remark: another data set of the same source
row,flash point,SMILES
1,32.00 °C,CC[Si](CC)(CC)CC [Tetraethylsilane]
